Patent US20080207708A1, “Oxazole and Thiazole Compounds and Their Use in the Treatment of Pge2 Mediated Disorders” (GLAXO GROUP LIMITED, priority 2005, published 2008)
Where a name gives a salt, the structure may show the parent alone.

Assays:
EP1 receptors [1] = biological target: T1, EP1 receptors (Homo sapiens, UniProt P34995); test: Binding assay for the human prostanoid EP1 receptor (competition with [3H]-PGE2); set-up: expressed in transfected cells; host or cells: CHO-K1 cells, membrane fraction; settings: [3H]-PGE2 competition; averages of a number of experiments; read-out: pIC50 value, binding assay for the human prostanoid EP1 receptor (converted)
T1 sequence (P34995 1-402): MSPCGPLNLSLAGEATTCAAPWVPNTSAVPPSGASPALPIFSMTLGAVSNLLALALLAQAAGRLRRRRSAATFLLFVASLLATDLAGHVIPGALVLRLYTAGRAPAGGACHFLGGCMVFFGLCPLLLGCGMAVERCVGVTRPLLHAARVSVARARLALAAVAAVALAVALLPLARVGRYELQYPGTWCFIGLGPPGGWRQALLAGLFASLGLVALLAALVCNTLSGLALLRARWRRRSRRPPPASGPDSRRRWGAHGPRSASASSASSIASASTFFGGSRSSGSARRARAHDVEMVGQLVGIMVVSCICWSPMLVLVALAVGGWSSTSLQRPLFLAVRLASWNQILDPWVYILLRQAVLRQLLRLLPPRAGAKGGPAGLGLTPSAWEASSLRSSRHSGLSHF
Summary of the method: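 Membranes from CHO-K1 cells stably expressing human EP1 incubated with compounds and [3H]-PGE2 (3 nM final) for 30 min at 30° C in MES buffer with EDTA and MgCl2, pH 6. Bound radioactivity measured after filtration; IC50 from nonlinear fit of specific binding inhibition.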

EP1 receptors [2] = biological target: T1, EP1 receptors; test: human EP1 calcium mobilisation assay (CHO-K1 cells, FLIPR, PGE2); type: cell-based; set-up: expressed in transfected cells; host or cells: CHO-K1 cells, pCIN vector; settings: free bases or sodium salts; averages of a number of experiments; read-out: functional pKi value, human EP1 calcium mobilisation assay (converted)
Method: Briefly, the antagonist properties of compounds are assessed by their ability to inhibit the mobilisation of intracellular calcium ([Ca^2+]i) in response to activation of EP1 or EP3 receptors by the natural agonist hormone prostaglandin E2 (PGE2). Increasing concentrations of antagonist reduce the amount of calcium that a given concentration of PGE2 can mobilise. The net effect is to displace the PGE2 concentration-effect curve to higher concentrations of PGE2. The amount of calcium produced is assessed using a calcium-sensitive fluorescent dye such as Fluo-4, AM and a suitable instrument such as a Fluorimetric Imaging Plate Reader (FLIPR). Increasing amounts of [Ca^2+]i produced by receptor activation increase the amount of fluorescence produced by the dye and give rise to an increasing signal. The signal may be detected using the FLIPR instrument and the data generated may be analysed with suitable curve-fitting software.
The human EP1 or EP3 calcium mobilisation assay (hereafter referred to as ‘the calcium assay’) utilises Chinese hamster ovary-K1 (CHO-K1) cells into which a stable (pCIN; BioTechniques 20 (1996): 102-110) vector containing either EP1 or EP3 cDNA has previously been transfected. Cells are cultured in suitable flasks containing culture medium such as DMEM:F-12 supplemented with 10% v/v foetal calf serum, 2 mM L-glutamine, 0.25 mg/ml geneticin, 100 μM flurbiprofen and 10 µg/ml puromycin. For assay, cells are harvested using a proprietary reagent that dislodges cells such as Versene. Cells are re-suspended in a suitable quantity of fresh culture media for introduction into a 384-well plate. Following incubation for 24 hours at 37° C. the culture media is replaced with a medium containing Fluo-4 and the detergent pluronic acid, and a further incubation takes place. Concentrations of compounds are then added to the plate in order to construct concentration-effect curves. This may be performed on the FLIPR in order to assess the agonist properties of the compounds. Concentrations of PGE2 are then added to the plate in order to assess the antagonist properties of the compounds. The data so generated may be analysed by means of a computerised curve-fitting routine. The concentration of compound that elicits a half-maximal inhibition of the calcium mobilisation induced by PGE2 (pIC50) may then be estimated.

Row | IC50 (EP1 receptors [1]) | Ki (EP1 receptors [2]) | Compound
1 | ≤ 31.6 nM | ≤ 31.6 nM | Cc1noc(C)c1S(=O)(=O)NC(=O)c1csc(Cc2cc(Cl)ccc2OCc2ccccc2)n1 [Example 108, 2-({5-Chloro-2-[(phenylmethyl)oxy]-phenyl}methyl)-N-[(3,5-dimethyl-4-isoxazolyl)sulfonyl]-1,3-thiazole-4-carboxamide]
2 | ≤ 1000 nM | < 1000 nM | CC(C)COc1ccc(Cl)cc1Cc1nc(NC(=O)OC(C)(C)C)cs1 [Example 111, 1,1-Dimethylethyl [2-({5-chloro-2-[(2-methylpropyl)oxy]phenyl}methyl)-1,3-thiazol-4-yl]carbamate]
3 | ≤ 31.6 nM | > 1000 nM | CNCc1ccc2nc(-c3csc(Nc4cc(Cl)ccc4OCC(C)C)n3)[nH]c2c1 [Example 179, N-{5-Chloro-2-[2-methylpropyl)oxy]phenyl}-4-{5-[(methylamino)methyl]-1H-benzimidazol-2-yl}-1,3-thiazol-2-amine hydrochloride]
4 | ≤ 31.6 nM | < 1000 nM | CC(C)COc1ccc(Cl)cc1Cc1nc(-c2nc3ccc(CN4CCN(C)CC4)cc3[nH]2)co1 [Example 178, 2-[2-({5-Chloro-2-[(2-methylpropyl)oxy]phenyl}methyl)-1,3-oxazol-4-yl]-5-[(4-methyl-1-piperazinyl)methyl]-1H-benzimidazoletrihydrochloride]
5 | ≤ 1000 nM | > 1000 nM | CC(C)COc1ccc(Cl)cc1C(F)(F)c1nc(-c2nc3ccccc3[nH]2)cs1 [Example 141, 2-{2-[{5-chloro-2-[(2-methylpropyl)oxy]phenyl}(difluoro)methyl]-1,3-thiazol-4-yl}-1H-benzimidazole hydrochloride]
6 | ≤ 31.6 nM | < 1000 nM | CC(C)COc1ccc(Cl)cc1Nc1nc(-c2nc3ccc(CN4CCN(C)CC4)cc3[nH]2)cs1 [Example 183, N-{5-Chloro-2-[(2-methylpropyl)oxy]phenyl}-4-{5-[(4-methyl-1-piperazinyl)methyl]-1H-benzimidazol-2-yl}-1,3-thiazol-2-amine]
7 | ≤ 1000 nM | < 1000 nM | CC(C)COc1ccc(Cl)cc1Cc1nc(-c2nc3cc(F)c(F)cc3[nH]2)cs1 [Example 155, 2-[2-({5-Chloro-2-[(2-methylpropyl)oxy]phenyl}methyl)-1,3-thiazol-4-yl]-5,6-difluoro-1H-benzimidazole]
8 | ≤ 1000 nM | < 1000 nM | O=C(Cc1ccccc1)Nc1csc(Cc2cc(Cl)ccc2OCc2ccccc2)n1 [Example 130, N-[2-({5-Chloro-2-[(phenylmethyl)oxy]phenyl}methyl)-1,3-thiazol-4-yl]-2-phenylacetamide]
9 | ≤ 1000 nM | < 1000 nM | O=C(NCc1ccccn1)c1csc(Cc2cc(Cl)ccc2OCc2ccccc2)n1 [Example 94, 2-({5-Chloro-2-[(phenylmethyl)oxy]phenyl}methyl)-N-(2-pyridinylmethyl)-1,3-thiazole-4-carboxamide]
10 | ≤ 31.6 nM | < 1000 nM | CC(C)COc1ccc(Cl)cc1Cc1nc(-c2nc3ccc(CCN4CCCC4)cc3[nH]2)co1 [Example 169, 2-[2-({5-chloro-2-[(2-methylpropyl)oxy]phenyl}methyl)-1,3-oxazol-4-yl]-5-[2-(1-pyrrolidinyl)ethyl]-1H-benzimidazolehydrochloride]
11 | ≤ 31.6 nM | < 1000 nM | CN1CCN(c2ccc3nc(-c4csc(Cc5cc(Cl)ccc5OCc5ccccc5)n4)[nH]c3c2)CC1 [Example 148, 2-[2-({5-Chloro-2-[(phenylmethyl)oxy]phenyl}methyl)-1,3-thiazol-4-yl]-5-(4-methyl-1-piperazinyl)-1H-benzimidazole hydrochloride]
12 | ≤ 31.6 nM | < 1000 nM | CC(C)COc1ccc(Cl)cc1Cc1nc(-c2nc3ccc(CN(C)C)cc3[nH]2)co1 [Example 175, ({2-[2-({5-Chloro-2-[(2-methylpropyl)oxy]phenyl}methyl)-1,3-oxazol-4-yl]-1H-benzimidazol-5-yl}methyl)dimethylaminedihydrochloride]
13 | ≤ 1000 nM | > 1000 nM | O=C(Nc1csc(Cc2cc(Cl)ccc2OCc2ccccc2)n1)c1ccc(CO)cc1 [Example 112, N-[2-({5-chloro-2-[(phenylmethyl)oxy]phenyl}methyl)-1,3-thiazol-4-yl]-4-(hydroxymethyl)benzamide]
14 | ≤ 31.6 nM | < 1000 nM | CC(C)COc1ccc(Cl)cc1Cc1nc(-c2nc3ccc(Cl)nc3[nH]2)cs1 [Example 140, 5-Chloro-2-[2-({5-chloro-2-[(2-methylpropyl)oxy]phenyl}methyl)-1,3-thiazol-4-yl]-1H-imidazo[4,5-b]pyridinehydrochloride]
15 | ≤ 1000 nM | > 1000 nM | O=C(Nc1ccccc1)c1csc(Cc2cc(Cl)ccc2OCc2ccccc2)n1 [Example 91, 2-({5-Chloro-2-[(phenylmethyl)oxy]phenyl}methyl)-N-phenyl-1,3-thiazole-4-carboxamide]
16 | ≤ 31.6 nM | < 1000 nM | CC(C)COc1ccc(Cl)cc1Cc1nc(-c2nc3ncccc3[nH]2)cs1 [Example 132, 2-[2-({5-Chloro-2-[(2-methyl-propyl)oxy]-phenyl}methyl)-1,3-thiazol-4-yl]-1H-imidazo[4,5-b]pyridine]
17 | ≤ 1000 nM | > 1000 nM | O=C(Nc1ccccn1)c1csc(Cc2cc(Cl)ccc2OCc2ccccc2)n1 [Example 99, 2-({5-Chloro-2-[(phenylmethyl)oxy]phenyl}methyl)-N-2-pyridinyl-1,3-thiazole-4-carboxamide]
18 | ≤ 31.6 nM | < 1000 nM | CC(C)COc1ccc(Cl)cc1Cc1nc(-c2nc3ccc(N4CCN(C)CC4)nc3[nH]2)cs1 [Example 146, 2-[2-({5-chloro-2-[(2-methylpropyl)oxy]phenyl}methyl)-1,3-thiazol-4-yl]-5-(4-methyl-1-piperazinyl)-1H-imidazo[4,5-b]pyridinehydrochloride]
19 | ≤ 1000 nM | < 1000 nM | Clc1ccc(OCc2ccccc2)c(Cc2nc(-c3nc4ccc(N5CCCC5)nc4[nH]3)cs2)c1 [Example 137, 2-[2-({5-Chloro-2-[(phenylmethyl)oxy]phenyl}methyl)-1,3-thiazol-4-yl]-5-(1-pyrrolidinyl)-1H-imidazo[4,5-b]pyridinehydrochloride]
20 | ≤ 31.6 nM | < 1000 nM | CC(C)COc1ccc(Cl)cc1Cc1nc(-c2nc3ccc(CCN4CCN(C)CC4)cc3[nH]2)co1 [Example 167, 2-[2-({5-chloro-2-[(2-methylpropyl)oxy]phenyl}methyl)-1,3-oxazol-4-yl]-5-[2-(4-methyl-1-piperazinyl)ethyl]-1H-benzimidazolehydrochloride]
21 | ≤ 1000 nM | > 1000 nM | CC(C)CNC(=O)c1csc(Cc2cc(Cl)ccc2OCc2ccccc2)n1 [Example 93, 2-({5-Chloro-2-[(phenylmethyl)oxy]phenyl}methyl)-N-(2-methylpropyl)-1,3-thiazole-4-carboxamide]
22 | ≤ 31.6 nM | < 1000 nM | CC(C)COc1ccc(Cl)cc1Cc1nc(-c2nc3ccc(CN4CCCCC4)cc3[nH]2)co1 [Example 177, 2-[2-({5-chloro-2-[(2-methylpropyl)oxy]phenyl}methyl)-1,3-oxazol-4-yl]-5-(1-piperidinylmethyl)-1H-benzimidazoledihydrochloride]
23 | ≤ 31.6 nM | < 1000 nM | Clc1ccc(OCc2ccccc2)c(Cc2nc(-c3nc4ccc(N5CCOCC5)cc4[nH]3)cs2)c1 [Example 149, 2-[2-({5-Chloro-2-[(phenylmethyl)oxy]phenyl}methyl)-1,3-thiazol-4-yl]-5-(4-morpholinyl)-1H-benzimidazole hydrochloride]
